Measurements from patent US20250213583A1, “ANTIVIRAL PHARMACEUTICAL COMPOSITION AND USE THEREOF” (priority 2022, published 2025).

Legend:
[1] = test system: SARS-CoV-2 B.1; assay: RT-qPCR of viral RNA, Vero E6 cells infected with SARS-CoV-2 B.1; type: cell-based
[2] = test system: hACE2-A549 cells; assay: Mitochondrial membrane potential by JC-1 staining, SARS-CoV-2 B.1-infected hACE2-A549 cells; type: cell-based, human; conditions: SARS-CoV-2 B.1-infected hACE2-A549, 30 μM, 24 hpi
Experimental: JC-1 is a marker for mitochondrial membrane potential, and appears as a green fluorescent monomer (˜529 nm) at depolarization and abnormal mitochondrial membrane potential. JC-1 was diluted to 10 mM, and the JC-1 solution was treated at a final concentration of 2 μM in serum-free DMEM for 20 minutes at 37° C. and 5% CO2. Control cells were treated with H2O2 for 20 minutes. After JC-1 staining, nuclei were stained using Hoechst 33342 (Thermo Fisher Scientific, cat #62249) for five minutes at room temperature. After each staining step, cells were washed three times with pre-heated PBS and mounted on a glass slide. All steps were carried out with light blocked.
To evaluate mitochondrial homeostasis by treatment with Example Compound 1, hACE2-A549 cells and Calu-3 cells were infected with SARS-CoV-2 B.1 virus at MOI=0.1 and 1. After two hours, the cells were treated with Example Compound 1 at 30 μM, and JC-1 and MitoTracker staining of the hACE2A-549 cells and Calu-3 cells was performed at 24 hpi.

[3] = test system: SARS-CoV-2 BA.1 (omicron); assay: microbe, parasite or virus in culture; type: cell-based
[4] = test system: Zika virus (ZIKV); assay: microbe, parasite or virus in culture; type: cell-based
[5] = test system: Seoul virus (SEOV); assay: microbe, parasite or virus in culture; type: cell-based
[6] = test system: SARS-CoV-2 B.1 nucleocapsid protein; assay: Western blot of nucleocapsid protein, Vero E6 cells infected with SARS-CoV-2 B.1; type: cell-based; conditions: Vero E6, MOI=0.01, 30, 20, 10, 1 μM, 24 hpi
Experimental: (§1) Vero E6 cells, Calu-3 cells (1×10^6 cells per well), and hACE2-A549 cells (0.5×10^6 cells per well) were seeded in 6-well plates and placed in an incubator at 37° C. and 5% CO2 conditions overnight. When the cells reached approximately 80% density, they were washed twice with pre-heated phosphate-buffered saline (PBS; Gibco™ cat #70011069), 1 mL of 2% FBS medium was added, and the cells were infected at the following multiplicity of infection [MOI] values at 37° C. for two hours (MOI=0.01 for Vero E6 cells, MOI=0.1 for hACE2-A549 cells, and MOI=1 for Calu-3 cells). The infected plate was shaken every 15 minutes to efficiently distribute the infectious material. After two hours of virus adsorption, Example Compound 1 was administered. Next, the supernatants and cells were harvested at 24 hours post infection (hpi).
(§2) Cells were lysed using a radioimmunoprecipitation assay (RIPA) buffer (Cell Signaling Technology® cat #9806) and a protease/phosphatase inhibitor mixture (Cell Signaling Technology®, cat #5872). […]
(§3) The gels were transblotted using polyvinylidene difluoride (PVDF) membranes (Millipore Ltd., cat #617203) at 30 V for 90 minutes. […] The antibody-treated PVDF membrane was detected with a horseradish peroxidase (HRP) substrate (EMD Millipore Corporation) using VILBER (FUSION Solo S instrument). […]

[7] = test system: p-MLKL and cleaved caspase-3; assay: Western blot of cell death factors, SARS-CoV-2 B.1-infected hACE2-A549 cells; type: cell-based, human; conditions: SARS-CoV-2 B.1-infected hACE2-A549, MOI 0.1, 30 μM, 48 hpi
Experimental: Cells were lysed using a radioimmunoprecipitation assay (RIPA) buffer (Cell Signaling Technology® cat #9806) and a protease/phosphatase inhibitor mixture (Cell Signaling Technology®, cat #5872). The lysed cells were electrophoresed on 12% and 15% acrylamide gels using sodium dodecyl sulfate polyacrylamide gels at 80 to 120 V for 90 minutes.
as §3, with “minutes. Proteins were transferred to a PVDF membrane and blocked at room temperature for one hour using Tris-buffered saline (TBS) and 0.1% Tween-20 (TBS-T, Bio-Rad Laboratories, Inc., cat #1706531) and 5% skim milk.” for “minutes.”

[8] = test system: SARS-CoV-2 B.1 nucleocapsid protein; assay: Western blot of nucleocapsid protein, hACE2-A549 cells infected with SARS-CoV-2 B.1; type: cell-based; conditions: hACE2-A549, MOI=0.1, 24 hpi
Experimental: as §1, §2, §3

[9] = test system: SARS-CoV-2 B.1; assay: Plaque assay, Vero E6 cells infected with SARS-CoV-2 B.1; type: cell-based; conditions: Vero E6, MOI=0.01, 30 μM, 24 hpi
[10] = test system: vaccinia virus (VACV); assay: microbe, parasite or virus in culture; type: cell-based
[11] = test system: SARS-CoV-2 B.1.617.2 (delta); assay: microbe, parasite or virus in culture; type: cell-based
[12] = test system: Calu-3 cells; assay: Mitochondrial membrane potential by MitoTracker Orange CMTMRos and IFA, SARS-CoV-2 B.1-infected Calu-3 cells; type: cell-based; conditions: SARS-CoV-2 B.1-infected Calu-3, 30 μM, 24 hpi
Experimental: Mitochondrial membrane potential probes MitoTracker™ Orange CMTMRos (Invitrogen™ cat #M7510) and JC-1 (Thermo Fisher Scientific, cat #T3168) were used to measure the recovery of mitochondrial membrane potential. Mitotracker™MOrange CMTMRos is a fluorescent dye that stains mitochondria in living cells and can be observed under a confocal microscope at a wavelength of 554 to 576 nm.
Calu-3 cells were seeded on a 4-chamber slide, infected with a virus and treated with Example Compound 1, and then treated with Mitotracker™MOrange CMTMRos at a final concentration of 500 nM in serum-free DMEM for 20 minutes at 37° C. and 5% CO2. Control cells were treated with carbonyl cyanide-p-trifluoromethoxyphenylhydrazone (FCCP) for 20 minutes. All steps were carried out with light blocked, the 4-chamber slide was washed three times with pre-heated PBS, and an immunofluorescence analysis (IFA) was performed.
To evaluate mitochondrial homeostasis by treatment with Example Compound 1, hACE2-A549 cells and Calu-3 cells were infected with SARS-CoV-2 B.1 virus at MOI=0.1 and 1. […]
In addition, after infecting the Calu-3 cells with SARS-CoV-2, the membrane potential of the infected cells was measured using MitoTracker™ Orange CMTMRos and IFA, and the results are shown in FIG. 5C.

[13] = test system: mitochondrial OXPHOS complexes I, II, III, IV, and V; assay: Mitochondrial OXPHOS complex expression (mRNAseq DEG) in SARS-CoV-2 B.1-infected hACE2-A549 cells; type: cell-based, human; conditions: SARS-CoV-2 B.1-infected hACE2-A549, MOI 0.1, 30 μM, 24 hpi
[14] = test system: SARS-CoV-2 B.1; assay: Plaque assay, hACE2-A549 cells infected with SARS-CoV-2 B.1; type: cell-based; conditions: hACE2-A549, MOI=0.1, 30 μM, 24 hpi
[15] = test system: SARS-CoV-2 B.1; assay: RT-qPCR of viral RNA, hACE2-A549 cells infected with SARS-CoV-2 B.1; type: cell-based; conditions: for EC50: read-out: EC50 against the SARS-CoV-2 B.1 virus; for inhibited the replication of SARS-CoV-2 B.1 (RT-qPCR): 24 hpi
[16] = test system: Nrf2 signaling pathway (HMOX1, Nqo1); assay: Nrf2 signaling pathway gene expression (mRNAseq DEG, RT-qPCR) in SARS-CoV-2 B.1-infected hACE2-A549 cells; type: cell-based, human; conditions: SARS-CoV-2 B.1-infected hACE2-A549, MOI 0.1, 30 μM, 24 hpi
[17] = test system: interferon signaling and pro-inflammatory cytokine genes (Ifnβ, Ifit1, Ifit2, Il-6, Tnfα); assay: Inflammatory cytokine gene expression (mRNAseq DEG, RT-qPCR) in SARS-CoV-2 B.1-infected hACE2-A549 cells; type: cell-based, human
[18] = test system: MFN1 and MFN2; assay: Western blot of mitochondrial fusion factors, SARS-CoV-2 B.1-infected Calu-3 cells; type: cell-based; conditions: SARS-CoV-2 B.1-infected Calu-3, 24 hpi
[19] = Severe acute respiratory syndrome coronavirus 2
[20] = SARS-CoV-2 B.1-infected hACE2-A549, 30 μM and 1 μM

O=S1(=O)CCN(Cc2cc(NC3CCOCC3)c3[nH]c(-c4ccccc4)cc3c2)CC1 [Example Compound 1, 5-[(1,1-dioxido-4-thiomorpholinyl)methyl]-2-phenyl-N-(tetrahydro-2H-pyran-4-yl)-1H-indol-7-amine]
EC50 ([1]; Severe acute respiratory syndrome coronavirus 2, Vero C1008, Vero E6, MOI=0.01, 24 hpi, read-out: EC50 against SARS-CoV-2 B.1): 1.1 µM | SARS-CoV-2 B.1 virus replication inhibited compared to untreated cells (RT-qPCR) ([1]; Vero E6, MOI=0.01, 30 μM, 24 hpi): up to 1,000 times | mitochondrial membrane potential (JC-1 Aggregate, RED) intensity [2]: intensity level similar to that of the uninfected cells | antiviral effect against SARS-CoV-2 BA.1 (omicron) (RT-qPCR) [3]: ~30 fold | EC50 [3, 19]: 1.1 µM | reduced the expression level of ZIKV (RT-qPCR) ([4]; Vero E6): about 16 times | EC50 ([4]; Zika virus, Vero C1008, Vero E6, 48 hpi): 7.8 µM | EC50 ([5]; Orthohantavirus seoulense, Vero C1008, read-out: EC50, SEOV): 1.9 µM | reduced the expression level of SEOV (RT-qPCR) ([5]; Vero E6, 24 hpi): about 3 times | expression of SARS-CoV-2 B.1 nucleocapsid protein (Western blot) [6]: decreased in a dose-dependency | necrosis-related p-MLKL protein and cell death-related cCaspase 3 protein (Western blot) [7]: inhibited | expression of SARS-CoV-2 B.1 nucleocapsid protein (Western blot) [8]: decreased in a dose-dependency | infectious particles of SARS-CoV-2 B.1 reduced compared to untreated cells (plaque assay) [9]: 1,000 times | EC50 ([10]; Orthopoxvirus vaccinia, Vero C1008, read-out: EC50, VACV): 6.6 µM | reduced the expression level of VACV (RT-qPCR) ([10]; Vero E6, 24 hpi): about 15 times | antiviral effect against SARS-CoV-2 B.1.617.2 (delta) (RT-qPCR) [11]: about 1000 fold | EC50 [11, 19]: 1.2 µM | SARS-CoV-2 nucleocapsid protein (IFA) [12]: significant decrease | mitochondrial membrane potential, MitoTracker accumulation [12]: accumulation of MitoTracker | expression of mitochondrial OXPHOS complexes I to V (mRNAseq, DEG) [13]: up-regulated expression of all five OXPHOS complexes | infectious particles of SARS-CoV-2 B.1 reduced (plaque assay) [14]: 100 fold | EC50 ([15]; Severe acute respiratory syndrome coronavirus 2, hACE2-A549, MOI=0.01, 24 hpi): 1.4 µM | EC50 ([15]; Severe acute respiratory syndrome coronavirus 2, hACE2-A549, MOI=0.1, 24 hpi): 7 µM | inhibited the replication of SARS-CoV-2 B.1 (RT-qPCR) ([15]; hACE2-A549, MOI=0.01, 30 µM): about 100 times | inhibited the replication of SARS-CoV-2 B.1 (RT-qPCR) ([15]; hACE2-A549, MOI=0.1, 30 μM): about 100 times | Nrf2 signaling pathway (mRNAseq, DEG) [16]: up-regulated | gene expression of HMOX1 and Nqo1 (RT-qPCR), compared to untreated infected cells [16]: significant increase | expression of the interferon signaling and pro-inflammatory cytokine genes (mRNAseq, DEG) ([17]; SARS-CoV-2 B.1-infected hACE2-A549): inhibited the expression | expression of interferon-related genes Ifnβ, Ifit1, and Ifit2 (RT-qPCR) [17, 20]: significantly down-regulated | induction of pro-inflammatory cytokine genes Il-6 and Tnfα (RT-qPCR) [17, 20]: reduced the induction | MFN1 and MFN2 protein level (Western blot) [18]: overexpression was suppressed
